In PMC5737775 (Journal of Alzheimer's disease : JAD, 2017):

Experiments:
[1] = target: rAβ42 (Aβ1-42) aggregation (Homo sapiens, UniProt P05067); test: Thioflavin T assay of Aβ42 aggregation; assay type: biochemical; conditions: for anti-aggregation activity, result in words: Aβ1-42, 48 h, thioflavin T, 1, 3, 10, 30 μM
[2] = system: IL-6 production by peritoneal macrophages stimulated with LPS; test: IL-6 secretion by LPS-stimulated murine peritoneal macrophages; assay type: cell-based, C57Bl/6 mice; conditions: for anti-inflammatory activity (IL-6 secretion), result in words: LPS-stimulated macrophages, 1, 3, 10, 30 μM; for inhibition of IL-6 at 30 μM: 30 μM compound, LPS 10 ng/mL
peritoneal macrophages = test: MTT cytotoxicity assay on peritoneal macrophages; assay type: cell-based, C57Bl/6 mice; conditions: for cell viability (MTT): at the concentrations tested (1, 3, 10, 30 μM)

Sequence of rAβ42 (Aβ1-42) aggregation (P05067 672-713 limits assumed): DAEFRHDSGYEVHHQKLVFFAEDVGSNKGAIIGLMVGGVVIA

Row | Compound | anti-aggregation activity, result in words [1] | anti-inflammatory activity (IL-6 secretion), result in words [2] | cell viability (MTT) (peritoneal macrophages) | inhibition of IL-6 at 30 μM [2] | IC50 [1] | cytotoxicity (MTT) at 30 μM (peritoneal macrophages; 30 μM)
1 | C#CCOc1ccc(/C=C/C(=O)CC(=O)/C=C/c2ccc(OCC#C)c(OC)c2)cc1OC [Compound 2, (1E,6E)-1,7-bis(3-methoxy-4-(prop-2-yn-1-yloxy)phenyl)hepta-1,6-diene-3,5-dione] | did not present anti-aggregation activity |  |  |  |  | 
2 | COc1cc(C=CC(=O)C=C(O)C=Cc2ccc(OC(=O)CCC(=O)OC3CCCC3)c(OC)c2)ccc1OC(=O)CCC(=O)OC1CCCC1 [Compound 9, dicyclopentyl O,O′-(((1E,3Z,6E)-3-hydroxy-5-oxohepta-1,3,6-triene-1,7-diyl)bis(2-methoxy-4,1-phenylene)) disuccinate] | did not present anti-aggregation activity | did not show any anti-inflammatory activity |  |  |  | 
3 | C=CCOC(=O)CCC(=O)Oc1ccc(/C=C/C(=O)/C=C(O)/C=C/c2ccc(O)c(OC)c2)cc1OC [Compound 6, allyl (4-((1E,4Z,6E)-5-hydroxy-7-(4-hydroxy-3-methoxyphenyl)-3-oxohepta-1,4,6-trien-1-yl)-2-methoxyphenyl) succinate] | inhibited the aggregation of Aβ in a concentration-dependent manner | mid-to-strong inhibition | did not affect the cell viability | complete inhibition | 1770 ± 900 nM | 
4 | COc1cc(/C=C/C(O)=C/C(=O)/C=C/c2ccc(OC(=O)CCC(=O)OC3CCCC3)c(OC)c2)ccc1O [Compound 10, cyclopentyl (4-((1E,4Z,6E)-5-hydroxy-7-(4-hydroxy-3-methoxyphenyl)-3-oxohepta-1,4,6-trien-1-yl)-2-methoxyphenyl) succinate] | inhibited the aggregation of Aβ in a concentration-dependent manner | mid-to-strong inhibition | did not affect the cell viability | complete inhibition | 2040 ± 700 nM | 
5 | COc1cc(/C=C/C(O)=C/C(=O)/C=C/c2ccc(OC(=O)CCC(=O)OCc3ccccc3)c(OC)c2)ccc1O [Compound 8, benzyl (4-((1E,4Z,6E)-5-hydroxy-7-(4-hydroxy-3-methoxyphenyl)-3-oxohepta-1,4,6-trien-1-yl)-2-methoxyphenyl) succinate] | did not present anti-aggregation activity | mid-to-strong inhibition | did not affect the cell viability | complete inhibition |  | 
6 | COc1cc(/C=C/C(O)=C/C(=O)/C=C/c2ccc(OC(C)=O)c(OC)c2)ccc1O [Compound 4, 4-((1E,4Z,6E)-5-hydroxy-7-(4-hydroxy-3-methoxyphenyl)-3-oxohepta-1,4,6-trien-1-yl)-2-methoxyphenyl acetate] | inhibited the aggregation of Aβ in a concentration-dependent manner |  |  |  | 1320 ± 700 nM | 
7 | C=CCOC(=O)CCC(=O)Oc1ccc(/C=C/C(=O)/C=C(O)/C=C/c2ccc(OC(=O)CCC(=O)OCC=C)c(OC)c2)cc1OC [Compound 5, diallyl O,O′-(((1E,3Z,6E)-3-hydroxy-5-oxohepta-1,3,6-triene-1,7-diyl)bis(2-methoxy-4,1-phenylene)) disuccinate] | inhibited the aggregation of Aβ in a concentration-dependent manner | mid-to-strong inhibition |  | complete inhibition |  | exhibited cytotoxicity
8 | COc1cc(/C=C/C(=O)/C=C(O)/C=C/c2ccc(OC(=O)CCC(=O)OCc3ccccc3)c(OC)c2)ccc1OC(=O)CCC(=O)OCc1ccccc1 [Compound 7, dibenzyl O,O′-(((1E,3Z,6E)-3-hydroxy-5-oxohepta-1,3,6triene-1,7-diyl)bis(2-methoxy-4,1-phenylene)) disuccinate] |  | did not show any anti-inflammatory activity |  |  |  | 
9 | COc1cc(/C=C/C(O)=C/C(=O)/C=C/c2ccc(OCc3ccccc3)c(OC)c2)ccc1O [Compound 3, (1E, 4Z, 6E)-1-(4-(benzyloxy)-3-methoxyphenyl)-5-hydroxy-7-(4-hydroxy-3-metho-xyphenyl)hepta-1,4,6-trien-3-one] | inhibited the aggregation of Aβ in a concentration-dependent manner |  |  |  |  | 
